According to US5324516A, “Galenic composition for decreasing blood alcohol concentration” (priority 1991, dated 1994):

Assay: Test 3: effect of each of primary ingredients on blood ethanol concentration in rats
Type: in vivo, rat
Details: pueraria flower 0.28, phaseoli 0.39, pinelliae 0.09, fructose 1.2 g/kg
Method: The 50 g of pueraria flower was finely chopped and extracted with 11 of water at 100° C. for 2.5 hours. The extract was filtered and lyophilized in a freeze dryer. The 10.7 g of the powder was obtained.
The phaseoli radiati semen and pinelliae tuber were extracted and lyophilized in the same manner as described for puerariae flos. The 14.6 g and 7 g of powder were obtained from phaseoli radiati semen and pinelliae tuber, respectively.
The powder of pueraria flower, phaseoli radiati semen, pinelliae tuber, and fructose were dissolved in an adquate volume of water and administered to rats fasted 18 to 24 hours at a dose of 0.28 g, 0.39 g, 0.09 g and 1.2 g/kg body weight, respectively. The rats were treated in the same manner as Test 2.

O=C(CO)[C@@H](O)[C@H](O)[C@H](O)CO [Fructose]
Alcohol concentration in blood (1 hr after 3 g/kg ethanol): 1.984 g/L | Alcohol concentration in blood (2 hr after 3 g/kg ethanol): 1.654 g/L | Alcohol concentration in blood (4 hr after 3 g/kg ethanol): 0.724 g/L | Alcohol concentration in blood (6 hr after 3 g/kg ethanol): 0.325 g/L
